Our source for the IC50 values is patent publication US4902709A, “Novel antihypercholesterolemic compounds” (Merck & Co., Inc., priority 1988, dated 1990).

The IC50 is the concentration that inhibits the measured activity by half. Read a high IC50 as weaker potency in that assay.

Molecules are shown by their SMILES.

For the assay, the target named is T1, HMG-CoA reductase (Rattus norvegicus, UniProt P51639).
T1 sequence (P51639 1-887): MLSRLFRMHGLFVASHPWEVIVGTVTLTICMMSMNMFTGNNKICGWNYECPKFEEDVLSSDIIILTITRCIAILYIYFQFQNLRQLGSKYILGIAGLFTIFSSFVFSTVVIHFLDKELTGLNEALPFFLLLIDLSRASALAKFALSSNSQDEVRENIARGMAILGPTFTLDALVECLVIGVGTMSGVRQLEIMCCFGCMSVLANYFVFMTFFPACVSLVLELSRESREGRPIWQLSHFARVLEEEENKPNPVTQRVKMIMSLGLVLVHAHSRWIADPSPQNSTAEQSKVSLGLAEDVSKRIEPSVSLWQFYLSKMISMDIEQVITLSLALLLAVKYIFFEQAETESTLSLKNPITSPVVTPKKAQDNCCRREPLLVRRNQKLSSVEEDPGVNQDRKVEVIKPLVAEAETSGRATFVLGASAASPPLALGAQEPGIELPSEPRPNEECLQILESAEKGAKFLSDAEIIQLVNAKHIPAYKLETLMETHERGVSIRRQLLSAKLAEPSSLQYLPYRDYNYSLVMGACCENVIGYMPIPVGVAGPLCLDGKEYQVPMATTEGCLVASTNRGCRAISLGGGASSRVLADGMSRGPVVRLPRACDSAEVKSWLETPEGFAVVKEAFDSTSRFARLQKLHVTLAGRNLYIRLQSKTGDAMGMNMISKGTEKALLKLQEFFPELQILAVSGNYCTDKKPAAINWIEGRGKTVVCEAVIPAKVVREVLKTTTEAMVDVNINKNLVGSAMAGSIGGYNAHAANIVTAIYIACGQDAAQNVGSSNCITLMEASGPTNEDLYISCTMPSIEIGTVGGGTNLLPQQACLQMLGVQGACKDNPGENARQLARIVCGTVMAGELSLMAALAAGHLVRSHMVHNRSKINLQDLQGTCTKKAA
The assay is described as follows: intrinsic HMG-CoA reductase inhibition (in vitro procedure detailed in U.S. Pat. No. 4,668,699). The format is biochemical. The note with it: 2,4 dichloro derivatives of formula I.
The compound `O=C1C[C@@H](c2ccccc2)C[C@H](CCc2ccc(Cl)cc2Cl)O1` (relative stereo) [Example 1, trans-6-[2-(2,4-dichlorophenyl)ethyl]-3,4,5,6-tetrahydro-4-phenyl-2H-pyran-2-one] returned an IC50 of 21 µM.
As for `O=C1C[C@H](c2ccc(-c3ccccc3)cc2)C[C@@H](CCc2ccc(Cl)cc2Cl)O1` (relative stereo) [Example 2], the figure is 33.6 µM; as for `COc1ccc([C@@H]2CC(=O)O[C@@H](CCc3ccc(Cl)cc3Cl)C2)cc1` (relative stereo) [Example 4], 43.5 µM; as for `O=C1C[C@@H](c2ccc(O)cc2)C[C@H](CCc2ccc(Cl)cc2Cl)O1` (relative stereo) [Example 5], 20.8 µM.
`O=C1C[C@@H](c2ccccc2CO)C[C@H](CCc2ccc(Cl)cc2Cl)O1` (relative stereo) [Example 8] had an IC50 of 42 µM.
